Results as given in patent US11266086B2, “Efficient plant transformation method” (Wisconsin Alumni Research Foundation, priority 2018, dated 2022).

Assays:
Format in all cases: in vivo
soybean VAEs [1] = experiment: Particle bombardment of soybean VAEs with Dicot Bomb 9 and glyphosate selection; conditions: for TF / Rooting Shoots: BOMB 9, glyphosate selection
Protocol: For particle bombardment experiments, gold-DNA “bead prep” was prepared by first washing 50 mg 0.6 um gold microcarriers (BioRad part #1652262) in 1 ml 100% ethanol and sonicating for 1 min 45 kHz. Gold was pelleted by centrifugation at 5000 rpm in microfuge (˜2300×g) and ethanol removed. Gold was then re-suspended in 1 ml 100% ethanol and stored at −20 C until use. To precipitate DNA onto beads, the 50 mg gold/1 ml ethanol stock was sonicated for 1 min 45 kHz. 42 ul of this stock was transferred to an Eppendorf tube, then pelleted by centrifugation at 2500 rpm for 10 seconds, after which ethanol was removed. 500 uL sterile water was added and mixture sonicated 1 min 45 kHz. Gold was again pelleted by centrifugation at 2500 rpm for 10 seconds and water removed. 25 ul sterile water was then added, followed by sonication for 1 min 45 kHz. 2.6, 1.3, or 0.65 ug VS225 DNA was added, then sterile water to bring volume up to 245 ul. 250 ul cold 2.5 M CaCl2 was added, followed by 50 ul 0.1 M spermidine. Solution was mixed by low speed vortexing. Tube was incubated on ice for approximately 1 hour with gentle inversions every 5-10 minutes. DNA/gold was pelleted at 1000 rpm (˜100×g) for 2 min and supernatant removed. Pellet was then washed with 1 ml 100% EtOH w/pipette tip, then pelleted again at 1000 rpm (˜100×g) for 2 min and supernatant removed 36 ul 100% EtOH was added to tube and gold completely re-suspended with low-speed vortexing. Bead prep was stored at −20 C until used, with 5 ul used per bombardment. This corresponds to 360, 180, or 90 ng DNA per blast; 290 ug gold per blast (1.2, 0.6, or 0.3 ng DNA per ug gold).
For blasting Soybean VAEs, meristem explants were incubated in 20% PEG4000 with 60 mg/L Captan and 30 mg/L Bravo for 1 hour, rinsed thoroughly, and pre-cultured overnight on WCIC EJW1 media at 28 C 16/8 photoperiod.
After preculture, Soybean VAEs were targeted on a 12% xantham gum holding media, 20 per plate, with meristems oriented upward. Prior to particle bombardment on the PDS-1000 helium gun, stop screens (BioRad part 1652336), 1350 psi rupture disks (BioRad 1652330), and macrocarrier holders (BioRad part 1652322) were sanitized for 1 min in 70% EtOH. Carrier sheets (BioRad part 1652335) were sanitized for 1 min in isopropanol. 1350 psi rupture disk was placed into the rupture disk retaining cap and screwed into the gas acceleration chamber. Stop screen was placed in the brass adjustable nest. 5 uL bead prep was deposited on the center of each carrier sheet loaded onto the macrocarrier holder and allowed to air dry. Macrocarrier holder was then turned over to place above retaining screen on brass nest. Macrocarrier cover lid was screwed on and completed macrocarrier launch assembly was placed on shelf directly under rupture disk. Gap distance between rupture disk and launch assembly was approximately 1 cm. Lid from target plate was removed and plate was placed on shelf 2 (2nd shelf from macrocarrier launch assembly) which is approximately 6 cm from assembly. Helium tank, PDS-1000, and vacuum were all turned on. Door was closed and vacuum applied to ˜27-28 In Hg. Fire button was depressed and held down until blast was complete. Vacuum was then released and target plate removed.
After blasting, soybean VAEs were detargeted onto WCIC EJW1 media and allowed to rest overnight at 28 C 16/8 photoperiod. Explants were then placed on WCIC Spectinomycin Selection Medium and placed in 28 C 16/8 photoperiod.
Alternate selectable markers for soybean VAE transformation—We applied soybean VAE technology to glyphosate selection, and were able to recover T0 plants from particle bombardment using Dicot Bomb 9 (FIG. 29) and the Goosegrass EPSP; where the explants were selected on 75 uM glyphosate; then rooted on 25 uM glyphosate. […] Our glyphosate selection work focused on reducing this cytokinin load during the preculture/rest phase. The T0 rooted shoots tested positive for GUS and RFP (tdTomato).

soybean VAEs [2] = experiment: Agrobacterium-mediated transformation of soybean meristem explants / VAEs with TDZ in co-culture
Protocol: Soybean seeds were surface sanitized in 20% Clorox (from concentrated Clorox with 8.25% sodium hypochlorite) for 5 minutes, rinsed 5× with sterile RO water, and then primed by allowing them to sit for 2 hrs at room temperature. Seeds were then imbibed in WCIC Bean Germination Media (BGM) overnight. Meristem explants were prepared the next day by removing seed coats and cotyledons from the seed using either a manual process or in a wet mill consisting of a series of rollers and spray nozzles. Meristem explants were then either dried under a variety of conditions, or used fresh. Drying of explants was performed in either a Laminar Flow Hood (LFH) with explants resting on a filter paper exposed to air, or in a BryAir seed dryer (model VFB-3-E-DXA) on filter paper. For internal moisture determination, 0.5-1 g of dried material was placed in a 103 C oven for 16-18 hours, contents allowed to cool, then re-weighed. For use in transformation, dried explants—designated as soy VAEs (value added explants) were incubated 1-2 hours at room temperature in 20% PEG4000 (dissolved in sterile distilled water) supplemented with 60 mg/L Captan fungicide and 30 mg/L Bravo (Daconil) fungicide. Explants were then rinsed 5-6× with sterile distilled water and inoculated with Agrobacterium. […] FIGS. 3A and 3B show VAEs (3A) as compared to explants directly from just dry seed (3B).
Agrobacterium inoculum was prepared under laminar flow hood from overnight cultures derived from 20% glycerol stocks stored at −80 C. Glycerol stocks were allowed to thaw, and approximately 50 ul stock was added to 50 ml LB with 50 mg/L kanamycin (GV3101 strain); or 250 ul stock to 50 ml LB with 50 ppm kanamycin and 100 ppm carbenicillin (AGL1 strain). The VS225 binary construct with pVS1 origin of replication conferred resistance to kanamycin, and had aadA, gus, and cas9 genes on its T-DNA. The pWI-1000 binary construct with pVS1 origin of replication conferred resistance to kanamycin, and had aadA and gus on its T-DNA. The pWI-1000 dsRED binary construct with pVS1 origin of replication conferred resistance to kanamycin, and had aadA, gus, and rfp (dsRED) on its T-DNA. Cultures were grown overnight at 28° C. 200 RPM on orbital shaker (Innova 4400 incubator shaker). The next morning optical densities of cultures at 660 nm (OD660) were checked (Hach DR5000™ Spectrophotometer) under laminar flow and then centrifuged at 2619×g for 20 min (H6000A rotor on Sorvall® RC3B centrifuge). Pelleted bacteria was re-suspended in WCIC INO media under laminar flow, diluted to OD660 0.3-0.45, and incubated at room temperature 150 RPM until used (VWR orbital shaker). In some experiments acetosyringone was added to inoculum at 100 uM to help induce the vir operon.
Meristem explants were inoculated under laminar flow in inverted PlantCon® (approximately 25 ml inoculum per PlantCon®) (MP Biomedicals, LLC Cat. 26-722-06) and sonicated for 20 s, 45+/−2 kHz (L&R Sonicator Quantrex 450) in a 0.1% Triton X-100 water bath (Triton X-100 from Sigma #9002-93-1). Inoculated explants were incubated with inoculum for additional 30 min at room temperature at 75 RPM. Excess inoculum was then removed, and explants co-cultured in PlantCons® with 2.5 ml WCIC INO media supplemented with 50 mg/L nystatin, 10 mg/L TBZ, and 95 uM lipoic acid at 23 C 16/8 photoperiod. In some experiments this co-culture media was further supplemented with 1 mg/L TDZ in attempt to multiply meristematic cells and possibly suppress apical dominance. In some experiments acetosyringone was added to inoculum and/or co-culture medium at 100 uM as an inducing agent for the virulence cascade in the vir operon.
After co-culture (3-5 days) explants were transferred to 200 ppm spectinomycin WCIC B5 media. When using the GV3101 strain we supplemented this selection media with 200-400 mg/L carbenicillin to knock Agrobacterium overgrowth down. […]

[3] = test system: non-inoculated soybean VAEs; experiment: Spectinomycin selection titration on non-inoculated soybean VAEs; conditions: at 5 weeks
Excerpt: We ran a titration of spectinomycin selection levels on non-inoculated soybean VAEs, and could see visible bleaching and suppression of shooting and rooting as low as 50 ppm at 5 weeks (FIG. 5).

SMILES: c1ccc(CNc2ncnc3nc[nH]c23)cc1 [BAP, 6-benzylaminopurine]
- TF (soybean VAEs [1]; preculture and rest OR (3 ppm BAP)): 0.3%
- Rooting Shoots (soybean VAEs [1]; preculture and rest OR (3 ppm BAP), 380 initial explants): 1

SMILES: O=C(Nc1ccccc1)Nc1cnns1 [TDZ, thidiazuron]
- TF (soybean VAEs [1]; preculture EJW1 (1 ppm TDZ), rest EJW0 (no PGRs)): 0.4%
- Rooting Shoots (soybean VAEs [1]; preculture EJW1 (1 ppm TDZ), rest EJW0 (no PGRs), 264 initial explants): 1
- TF (soybean VAEs [1]; preculture and rest EJW3 (0.5 ppm TDZ)): 0.5%
- Rooting Shoots (soybean VAEs [1]; preculture and rest EJW3 (0.5 ppm TDZ), 387 initial explants): 2
- TF (soybean VAEs [2]; VAE batch S16b, 5 h dry in 20 C Bryair to 8.3% moisture, 3025N, TDZ in co-culture): 0.6%
- # T0 Plants (soybean VAEs [2]; VAE batch S16b, 5 h dry in 20 C Bryair to 8.3% moisture, 3025N, TDZ in co-culture, 162 explants): 1
- TF (soybean VAEs [2]; VAE batch S18, 6 h dry in 20 C Bryair to 27% moisture, LD10-30087, TDZ in co-culture): 1.4%
- # T0 Plants (soybean VAEs [2]; VAE batch S18, 6 h dry in 20 C Bryair to 27% moisture, LD10-30087, TDZ in co-culture, 74 explants): 1
- TF (soybean VAEs [2]; VAE batch S19, 6 h dry in 20 C Bryair to 21% moisture, LD10-30092, TDZ in co-culture): 3.3%
- # T0 Plants (soybean VAEs [2]; VAE batch S19, 6 h dry in 20 C Bryair to 21% moisture, LD10-30092, TDZ in co-culture, 91 explants): 3
- TF (soybean VAEs [2]; VAE batch S20, 6 h dry in 20 C Bryair to 18% moisture, LD10-30094, TDZ in co-culture): 1.2%
- # T0 Plants (soybean VAEs [2]; VAE batch S20, 6 h dry in 20 C Bryair to 18% moisture, LD10-30094, TDZ in co-culture, 85 explants): 1
- TF (soybean VAEs [2]; VAE batch S26, 6 h dry in 20 C Bryair, W82, TDZ in co-culture (Table 12)): 4.4%
- # T0 Plants (soybean VAEs [2]; VAE batch S26, 6 h dry in 20 C Bryair, W82, TDZ in co-culture, 182 explants (Table 12)): 8
- TF (soybean VAEs [2]; VAE batch S27, 5 h dry in 20 C Bryair, 3849N, TDZ in co-culture): 2.1%
- # T0 Plants (soybean VAEs [2]; VAE batch S27, 5 h dry in 20 C Bryair, 3849N, TDZ in co-culture, 289 explants): 6
- TF (soybean VAEs [2]; W82 VAEs, 20 C Bryair 5.5 h, 1 ppm TDZ in co-culture, second set of replicates): 3.2%
- # T0 Plants (soybean VAEs [2]; W82 VAEs, 20 C Bryair 5.5 h, 1 ppm TDZ in co-culture, second set of replicates, 126 explants): 4
- TF (soybean VAEs [2]; W82 VAEs, 20 C Bryair 6 h, 1 ppm TDZ in co-culture, first set of replicates (Table 13b)): 5.5%
- # T0 Plants (soybean VAEs [2]; W82 VAEs, 20 C Bryair 6 h, 1 ppm TDZ in co-culture, first set of replicates (Table 13b), 182 explants): 10
- TF (soybean VAEs [2]; W82 VAEs, LFH 20.5 h, 1 ppm TDZ in co-culture, second set of replicates): 2.1%
- # T0 Plants (soybean VAEs [2]; W82 VAEs, LFH 20.5 h, 1 ppm TDZ in co-culture, second set of replicates, 144 explants): 3
- TF (soybean VAEs [2]; W82 VAEs, various drying conditions, 1 ppm TDZ in co-culture, summary of replicates): 3.8%
- # R0 Plants (soybean VAEs [2]; W82 VAEs, various drying conditions, 1 ppm TDZ in co-culture, summary of replicates, 452 explants): 17
- TF (soybean VAEs [2]; freshly excised Williams82, fresh sample of explants dried to generate S17 series, TDZ 1 mg/L in co-culture): 12.6%
- # T0 Plants (soybean VAEs [2]; freshly excised Williams82, fresh sample of explants dried to generate S17 series, TDZ 1 mg/L in co-culture, 95 explants): 12
- effect of TDZ in co-culture on transformation (soybean VAEs [2]; freshly excised soy meristem explants (S17 series), TDZ 1 mg/L in co-culture): apparent benefit

SMILES: CN[C@@H]1[C@H](O)[C@H](NC)[C@H]2O[C@@]3(O)C(=O)C[C@@H](C)O[C@H]3O[C@@H]2[C@H]1O [spectinomycin]
- lowest spectinomycin level with visible bleaching and suppression of shooting and rooting [3]: 50 ppm

SMILES: O=C(O)CNCP(=O)(O)O [glyphosate]
- plant recovery with glyphosate selection (soybean VAEs [1]; preculture and resting media conditions of the spectinomycin protocol (EJW1 with TDZ), particle bombardment): yielded no plants
